Assay results published in PMC2707030 (Clinical cancer research : an official journal of the …, 2009).

Columns and labels:
[1] = tested on: ATP-binding cassette transporter ABCB1 (P-glycoprotein, MDR1); details: cited from earlier work
[2] = Population pharmacokinetics; format: in vivo, human
[3] = cited from earlier work
[4] = rats; cited from earlier work
[5] = nonparametric bootstrap, 1342 converged of 1500 runs, 98 patients, final model

C/C=C1\NC(=O)[C@H]2CSSCC/C=C/[C@H](CC(=O)N[C@H](C(C)C)C(=O)N2)OC(=O)[C@H](C(C)C)NC1=O [romidepsin]
Substrate of ABCB1 [1]: substrate | CL, non-carriers of ABCB1 2677 GA/AA ([2]; difference to carriers did not reach statistical criteria (ΔOFV = 3.4)): 16 L/h | Estimated elimination half-life ([2]; following 4-hour infusion, 14 or 18 mg/m^2, final two-compartment model): 3.5 h | CL, carriers of ABCB1 2677 GA/AA ([2]; n=7, difference to non-carriers did not reach statistical criteria (ΔOFV = 3.4)): 13 L/h | CL, bootstrap analysis median (%RSE) [2, 5]: 15.9 (6.2) L/h | Q, bootstrap analysis median (%RSE) [2, 5]: 1.01 (14.7) L/h | V1, bootstrap analysis median (%RSE) [2, 5]: 9.71 (8.9) L | V2, bootstrap analysis median (%RSE) [2, 5]: 4.73 (11.1) L | Total clearance reported in adults ([3]; dose 13 mg/m^2): 4.8 L/h/m^2 | Mean CL reported in adults ([3]; dose 17.8 mg/m^2): 10.5 L/h/m^2 | Fraction of the dose excreted into the bile [4]: 66%
